# Source: patent US20070110833A1, “Composition comprising the alcohol compound isolated from the extract of cucurbitaceae family plant having anti-adipogenic and anti-obesity activity” (priority 2003, published 2007)
# Tested on: 3T3-L1 cell
# Assay: Inhibition of adipocyte (3T3-L1) differentiation and triglyceride accumulation, Oil Red O staining
# Assay type: cell-based
# Protocol: Adipocyte cell (3T3-L1) purchased from ATCC (American Tissue Culture Collection, USA) was cultured in RPMI medium containing 10% FBS and MDI cocktail (isobutylmethylxanthine, dexamethasone, insulin) was added thereto for differentiating into mature adipocytes cell. After two days, the medium was replaced and treated with only insulin. Thereafter, the medium was replaced and equal concentration of insulin was treated again every other day. MDI ranging from 2.5 to 1000 ug/ml of the concentration was treated when the adipocytes differentiation was induced and equal concentration of the MDI was treated at every replacement of the medium.
# After eight days lapsed, the accumulated fat within differentiated cell was stained with Oil Red O staining reagent and the absorbance was determined with optical density qualitatively. The inhibition percentage (%) was calculated by following Empirical formula 1. The Inhibition Percentage (%)=[O.D. of test group]/[O.D. value of Control group]×100 [Empirical Formula 1]
compound,measurement,setting,value
C[S+]([O-])c1ccc(-c2nc(-c3ccncc3)c(-c3ccc(F)cc3)[nH]2)cc1 (centres unmarked) [SB203580],adipocyte differentiation and triglyceride accumulation,"Experimental Example 1-3, cmc-9 and controls, FIG. 5",the triglyceride was not formed
same,level of produced triglycerides in differentiated 3T3-L1 cells (Oil Red O),"MDI-induced differentiation, 8 days, extracts 1 mg/ml, SB203580 10 uM, FIGS. 1 and 2",the triglyceride was not produced
